Converted amounts (≈) assume the structure as drawn. Like-named read-outs stand apart in the source and are kept apart here.
Assays:
A-204 rhabdomysarcoma = assay: Inhibition of colony formation by human tumor cell line A-204 (rhabdomysarcoma), long-term exposure; assay type: cell-based; conditions: 9 days
Description: (§1) Cytotoxic activity of O-HMM against in vitro human tumor cells was measured as inhibition of colony formation and the results expressed as a ratio of the number of colonies in test dishes to number of control dishes, times 100 (Table 4).
(§2) Inhibition of colony formation by human tumor
(§3) ^a Percent survival as measured by the number of colonies in test

A-498 renal carcinoma = assay: Inhibition of colony formation by human tumor cell line A-498 (renal carcinoma), long-term exposure; assay type: cell-based; conditions: 9 days
Description: as §1, §2, §3

A-101D melanoma = assay: Inhibition of colony formation by human tumor cell line A-101D (melanoma), long-term exposure; assay type: cell-based; conditions: 9 days
Description: as §1, §2, §3

A-549 lung carcinoma = assay: Inhibition of colony formation by human tumor cell line A-549 (lung carcinoma), long-term exposure; assay type: cell-based; conditions: 9 days
Description: as §1, §2, §3

[1] = Solubility in lipid and aqueous media; assay type: physicochemical
[2] = Rearrangement of O-HMM to HDT (chemical stability); assay type: physicochemical; conditions: for degraded at 4 h / degraded at 24 h / degraded at 26 h / degraded at 20 h: read-out: HDT (formed by rearrangement, determined by NMR); for remaining at 4 h / remaining at 24 h / remaining at 26 h / remaining at 20 h: read-out: HMM--NO (remaining, determined by NMR); for degraded at 24 h / remaining at 24 h: h2o; for degraded at 20 h / remaining at 20 h: 135° C. sealed tube
Description: Solvent Temp. Time HMM--NO HDT
^a Yields determined by NMR
^b Sealed tube reaction. Solutions degassed with argon and then seale
^d 0.1 equiv. mchlorobenzoic acid
^e 0.1 equiv. pnitrobenzoic acid
^f 0.05 M HOAc/NaOAc pH 5

rats = assay: Acute toxic effects after intraperitoneal administration in rats; assay type: in vivo, Male Harlen-Sprague-Dawley rats; conditions: rat; 20 mg/kg intraperitoneal
Description: Male Harlen-Sprague-Dawley rats, 200-300 g were given 20 mg/kg of O-HMM by intraperitoneal injection (control rats received saline vehicle only) and their urine collected for two consecutive 24 hr. periods.

male BDF1 mice = assay: Toxicity study (LD50 study) in mice; assay type: in vivo; conditions: IP
Description: These effects diminished over a period of about 3-5 hours until the animal appeared normal and resumed activity.

[3] = test system: A-549 lung carcinoma, A-101D melanoma, A-498 renal carcinoma and A-204 rhabdomysarcoma; assay: Comparison of O-HMM with HMM in the human tumor colony formation test systems; assay type: cell-based; conditions: vs HMM; all four cell lines
Description: as §1

[4] = h2o/h+ (0.05 m hoac/naoac), pH 5, H2O/H+ (0.05 M HOAc/NaOAc pH 5), 25° C.
[5] = h2o/h+ (0.05 m hoac/naoac), pH 5, H2O/H+ (0.05 M HOAc/NaOAc pH 5), 50° C.
[6] = hccl3/h+ (m-chlorobenzoic acid), HCCl3/H+ (0.1 equiv. m-chlorobenzoic acid), 25° C.
[7] = hccl3/h+ (m-chlorobenzoic acid), HCCl3/H+ (0.1 equiv. m-chlorobenzoic acid), 50° C.
[8] = hccl3/h+ (m-chlorobenzoic acid), HCCl3/H+ (0.1 equiv. m-chlorobenzoic acid)
[9] = hccl3/h+ (p-nitrobenzoic acid), HCCl3/H+ (0.1 equiv. p-nitrobenzoic acid), 50° C.

CN(C)Oc1nc(N(C)C)nc(N(C)C)n1 [O-HMM, 2,4-bis(dimethylamino)-6-[(dimethylamino)oxy]-1,3,5-triazine]
inhibition of colony formation (A-204 rhabdomysarcoma; 200 μg/ml): Complete inhibition | viability at 10 µg/mL (A-204 rhabdomysarcoma; Homo sapiens, A204, 216 h, 10 ug/ml, read-out: Percent survival (number of colonies in test dishes to colonies in control dishes times 100)): 99 ± 26% | viability at 20 µg/mL (A-204 rhabdomysarcoma; Homo sapiens, A204, 216 h, 20 ug/ml, read-out: Percent survival (number of colonies in test dishes to colonies in control dishes times 100)): 87 ± 13% | viability at 40 µg/mL (A-204 rhabdomysarcoma; Homo sapiens, A204, 216 h, 40 ug/ml, read-out: Percent survival (number of colonies in test dishes to colonies in control dishes times 100)): 76 ± 17% | viability at 60 µg/mL (A-204 rhabdomysarcoma; Homo sapiens, A204, 216 h, 60 ug/ml, read-out: Percent survival (number of colonies in test dishes to colonies in control dishes times 100)): 48 ± 21% | viability at 80 µg/mL (A-204 rhabdomysarcoma; Homo sapiens, A204, 216 h, 80 ug/ml, read-out: Percent survival (number of colonies in test dishes to colonies in control dishes times 100)): 20 ± 17% | viability at 100 µg/mL (A-204 rhabdomysarcoma; Homo sapiens, A204, 216 h, 100 ug/ml, read-out: Percent survival (number of colonies in test dishes to colonies in control dishes times 100)): 4 ± 4% | viability at 120 µg/mL (A-204 rhabdomysarcoma; Homo sapiens, A204, 216 h, 120 ug/ml, read-out: Percent survival (number of colonies in test dishes to colonies in control dishes times 100)): 1 ± 2% | viability at 200 µg/mL (A-204 rhabdomysarcoma; Homo sapiens, A204, 216 h, 200 ug/ml, read-out: Percent survival (number of colonies in test dishes to colonies in control dishes times 100)): 0% | inhibition of colony formation (A-498 renal carcinoma; 200 μg/ml): Complete inhibition | viability at 10 µg/mL (A-498 renal carcinoma; Homo sapiens, A498, 216 h, 10 ug/ml, read-out: Percent survival (number of colonies in test dishes to colonies in control dishes times 100)): 93 ± 3% | viability at 20 µg/mL (A-498 renal carcinoma; Homo sapiens, A498, 216 h, 20 ug/ml, read-out: Percent survival (number of colonies in test dishes to colonies in control dishes times 100)): 83 ± 7% | viability at 40 µg/mL (A-498 renal carcinoma; Homo sapiens, A498, 216 h, 40 ug/ml, read-out: Percent survival (number of colonies in test dishes to colonies in control dishes times 100)): 67 ± 14% | viability at 60 µg/mL (A-498 renal carcinoma; Homo sapiens, A498, 216 h, 60 ug/ml, read-out: Percent survival (number of colonies in test dishes to colonies in control dishes times 100)): 44 ± 23% | viability at 80 µg/mL (A-498 renal carcinoma; Homo sapiens, A498, 216 h, 80 ug/ml, read-out: Percent survival (number of colonies in test dishes to colonies in control dishes times 100)): 24 ± 18% | viability at 100 µg/mL (A-498 renal carcinoma; Homo sapiens, A498, 216 h, 100 ug/ml, read-out: Percent survival (number of colonies in test dishes to colonies in control dishes times 100)): 14 ± 9% | viability at 120 µg/mL (A-498 renal carcinoma; Homo sapiens, A498, 216 h, 120 ug/ml, read-out: Percent survival (number of colonies in test dishes to colonies in control dishes times 100)): 5 ± 6% | viability at 200 µg/mL (A-498 renal carcinoma; Homo sapiens, A498, 216 h, 200 ug/ml, read-out: Percent survival (number of colonies in test dishes to colonies in control dishes times 100)): 0% | inhibition of colony formation (A-101D melanoma; 200 μg/ml): Complete inhibition | viability at 10 µg/mL (A-101D melanoma; Homo sapiens, A101D, 216 h, 10 ug/ml, read-out: Percent survival (number of colonies in test dishes to colonies in control dishes times 100)): 95 ± 10% | viability at 20 µg/mL (A-101D melanoma; Homo sapiens, A101D, 216 h, 20 ug/ml, read-out: Percent survival (number of colonies in test dishes to colonies in control dishes times 100)): 82 ± 9% | viability at 40 µg/mL (A-101D melanoma; Homo sapiens, A101D, 216 h, 40 ug/ml, read-out: Percent survival (number of colonies in test dishes to colonies in control dishes times 100)): 50 ± 15% | viability at 60 µg/mL (A-101D melanoma; Homo sapiens, A101D, 216 h, 60 ug/ml, read-out: Percent survival (number of colonies in test dishes to colonies in control dishes times 100)): 17 ± 16% | viability at 80 µg/mL (A-101D melanoma; Homo sapiens, A101D, 216 h, 80 ug/ml, read-out: Percent survival (number of colonies in test dishes to colonies in control dishes times 100)): 1 ± 1% | viability at 100 µg/mL (A-101D melanoma; Homo sapiens, A101D, 216 h, 100 ug/ml, read-out: Percent survival (number of colonies in test dishes to colonies in control dishes times 100)): 0% | viability at 120 µg/mL (A-101D melanoma; Homo sapiens, A101D, 216 h, 120 ug/ml, read-out: Percent survival (number of colonies in test dishes to colonies in control dishes times 100)): 0% | viability at 200 µg/mL (A-101D melanoma; Homo sapiens, A101D, 216 h, 200 ug/ml, read-out: Percent survival (number of colonies in test dishes to colonies in control dishes times 100)): 0% | inhibition of colony formation (A-549 lung carcinoma; 200 μg/ml): Complete inhibition | viability at 10 µg/mL (A-549 lung carcinoma; Homo sapiens, A549, 216 h, 10 ug/ml, read-out: Percent survival (number of colonies in test dishes to colonies in control dishes times 100)): 91 ± 6% | viability at 20 µg/mL (A-549 lung carcinoma; Homo sapiens, A549, 216 h, 20 ug/ml, read-out: Percent survival (number of colonies in test dishes to colonies in control dishes times 100)): 94 ± 4% | viability at 40 µg/mL (A-549 lung carcinoma; Homo sapiens, A549, 216 h, 40 ug/ml, read-out: Percent survival (number of colonies in test dishes to colonies in control dishes times 100)): 69 ± 11% | viability at 60 µg/mL (A-549 lung carcinoma; Homo sapiens, A549, 216 h, 60 ug/ml, read-out: Percent survival (number of colonies in test dishes to colonies in control dishes times 100)): 9 ± 14% | viability at 80 µg/mL (A-549 lung carcinoma; Homo sapiens, A549, 216 h, 80 ug/ml, read-out: Percent survival (number of colonies in test dishes to colonies in control dishes times 100)): 0% | viability at 100 µg/mL (A-549 lung carcinoma; Homo sapiens, A549, 216 h, 100 ug/ml, read-out: Percent survival (number of colonies in test dishes to colonies in control dishes times 100)): 0% | viability at 120 µg/mL (A-549 lung carcinoma; Homo sapiens, A549, 216 h, 120 ug/ml, read-out: Percent survival (number of colonies in test dishes to colonies in control dishes times 100)): 0% | viability at 200 µg/mL (A-549 lung carcinoma; Homo sapiens, A549, 216 h, 200 ug/ml, read-out: Percent survival (number of colonies in test dishes to colonies in control dishes times 100)): 0% | solubility ([1]; pentane, organic solvent or mixture, read-out: solubility in lipid medium (pentane)): 29 mg/mL (≈ 128 mM) | solubility ([1]; water, read-out: solubility in aqueous medium (water)): 19 mg/mL (≈ 84 mM) | degraded at 4 h ([2]; h2o/h+ (0.01 m hcl), 25° C.): 100% | remaining at 4 h ([2]; h2o/h+ (0.01 m hcl), 25° C.): 0% | degraded at 4 h [2, 4]: 79% | remaining at 4 h [2, 4]: 21% | degraded at 4 h [2, 5]: 100% | remaining at 4 h [2, 5]: 0% | degraded at 24 h ([2]; 25° C.): 0% | remaining at 24 h ([2]; 25° C.): 100% | degraded at 24 h ([2]; 50° C.): 9% | remaining at 24 h ([2]; 50° C.): 91% | degraded at 26 h ([2]; hccl3, HCCl3, 25° C.): 3% | remaining at 26 h ([2]; hccl3, HCCl3, 25° C.): 97% | degraded at 26 h ([2]; hccl3, HCCl3, 50° C.): 37% | remaining at 26 h ([2]; hccl3, HCCl3, 50° C.): 63% | degraded at 20 h ([2]; hccl3, HCCl3): 100% | remaining at 20 h ([2]; hccl3, HCCl3): 0% | degraded at 26 h [2, 6]: 66% | remaining at 26 h [2, 6]: 34% | degraded at 26 h [2, 7]: 97% | remaining at 26 h [2, 7]: 3% | degraded at 20 h [2, 8]: 100% | remaining at 20 h [2, 8]: 0% | degraded at 26 h [2, 9]: 100% | remaining at 26 h [2, 9]: 0% | degraded at 20 h ([2]; pentane): 100% | remaining at 20 h ([2]; pentane): 0% | acute toxic effects (rats): No acute toxic effects were observed | onset of changes in the mouse's behavior after injection (male BDF1 mice): < 1 min | recovery of the fourth mouse (male BDF1 mice; 1000 mg/kg): recovering completely | time of recovery (dose dependence) (male BDF1 mice; mouse): dose-dependent time of recovery | time until effects diminished and animal appeared normal (male BDF1 mice; mouse): 3 to 5 h | time to death (male BDF1 mice; mouse, 1000 mg/kg): ≤ 3 min | deaths (male BDF1 mice; mouse, 1000 mg/kg, 4 mice): 3 of the 4 | long-term effects (weight loss, hair loss, death rate vs control animals) (male BDF1 mice; mouse, 60- and 120-day observation): no long-term effects | recovery of the remaining mice in the other groups (male BDF1 mice; mouse, 500, 250, 100, 50 and 25 mg/kg): recovered completely in a few hours | toxic phenomenon (flaccid paralysis) (male BDF1 mice; mouse, 1000-25 mg/kg): dose dependent toxic phenomenon showing a decreasing degree of a flaccid paralysis with decreasing dose | absorption (male BDF1 mice; mouse, inferred from rapid onset of toxic effect): very rapid absorption | activity compared with HMM in the human tumor colony formation test systems [3]: consistently greater activity than HMM

Reference: patent US4576945A, “Hexaalkylmelamine-amino-oxy compounds” (priority 1984, dated 1986)
